From paper PMC4418665, “Cyclization of the Urokinase Receptor-Derived Ser-Arg-Ser-Arg-Tyr Peptide Generates a Potent Inhibitor of Trans-Endothelial Migration of Monocytes” (PLoS ONE, 2015)
Peptide text beside a SMILES is read from it.

Test system: GFP-tagged THP-1 cells on endothelial monolayer (HUVECs)
Experiment: Monocyte diapedesis: GFP-tagged THP-1 cells on HUVEC monolayer
Assay type: cell-based, human
Conditions: 10 nM peptide, 30 minutes, 37°C, 10 fields/slide
Excerpt: Diapedesis of leukocytes plays a key role in the pathogenesis of inflammatory diseases and migration of monocytes from the blood into the sub-endothelial space is one of the earliest events. We investigated the effects of [SRSRY] on the number and morphology of THP-1 seeded to an endothelial monolayer. […] (Fig 5A). To examine the changes in morphology in more detail and quantify monocytes interacting with endothelial monolayer, we performed a subset of experiments using GFP-tagged THP-1, labeling co-cultures for F-actin and recording images by a confocal microscope. […] To further ascertain if [SRSRY] reduces trans-endothelial migration of monocytes, the ability of THP-1 cells to cross an endothelial monolayer was analyzed using the xCELLigence RTCA technology as previously described. […] At this time, reduction of impedance values, due to invading cells that interrupt monolayers was monitored in real-time for 10 hours. […]
Fig 5 [SRSRY] prevents trans-endothelial migration of THP-1 cells. […] Representative images of co-cultures analyzed by phase contrast microscopy at 100x with Scale bar: 50 μm (A) or stained with rhodamine- phalloidin and recorded by a confocal microscope (z-series with 0.25 μm intervals) at 630x with Scale bar: 10 μm (B). […] Fluorescent THP-1 cells which were adherent on the endothelial monolayer were counted on 10 fields/slide at 200x magnification. […]

N=C(N)NCCC[C@@H]1NC(=O)[C@H](CO)NC(=O)[C@H](Cc2ccc(O)cc2)NC(=O)[C@H](CCCNC(=N)N)NC(=O)[C@H](CO)NC1=O [[SRSRY], [Ser-Arg-Ser-Arg-Tyr]] (cyclo(RSRYS))
reduction of GFP-THP-1 cell number interacting with endothelial monolayer: 40%
